Laboratory results from paper PMC7093416, “Selective USP7 inhibition elicits cancer cell killing through a p53-dependent mechanism” (Scientific Reports, 2020).

System: panel of 484 cancer cell lines
Assay: PRISM cancer cell line profiling, 5 days
Format: cell-based
Design: AUC: unit not given beside the values
Procedure: Cancer cell line profiling was performed using the Broad’s PRISM platform. Cell treatment and data analysis were performed as described in Yu et al[42]. Raw Luminex signal was converted to AUC values for each cell line as described. The resulting AUC profile for each compound was modeled against DepMap using the limma package in R[71]. Because hotspot mutation analysis was performed against DepMap, TP53 annotations in Fig. 6c,d are directly from DepMap.

In the case of `CN1CCN(CCC(=O)Nc2ccc3c(=O)n(CC4(O)CCN(C(=O)[C@@H](CCCNC(=O)c5ccc6c(Cl)c7c(nc6c5)CCCC7)Cc5ccccc5)CC4)cnc3c2)CC1` [XL177A], the AUC (8MGBA_CENTRAL_NERVOUS_SYSTEM) is reported as 1.174, the AUC (22RV1_PROSTATE) is reported as 0.9618 and the AUC (42MGBA_CENTRAL_NERVOUS_SYSTEM) is reported as 1. The AUC (253JBV_URINARY_TRACT) was 0.9502, the AUC (253J_URINARY_TRACT) was 1.095 and the AUC (639V_URINARY_TRACT) was 0.832. The AUC (647V_URINARY_TRACT) was 1.06, the AUC (769P_KIDNEY) was 1.126 and the AUC (786O_KIDNEY) was 1.266. The AUC (5637_URINARY_TRACT) was 1.038, the AUC (8305C_THYROID) was 1.048 and the AUC (8505C_THYROID) was 0.9221. The AUC (2313287_STOMACH) was 1.154, the AUC (A101D_SKIN) was 1.013 and the AUC (A172_CENTRAL_NERVOUS_SYSTEM) was 0.8471. The AUC (A204_SOFT_TISSUE) was 0.8422, the AUC (A375_SKIN) was 1.23 and the AUC (A549_LUNG) was 0.8217. The AUC (A673_BONE) was 1.349, the AUC (A704_KIDNEY) was 1.109 and the AUC (A2058_SKIN) was 0.9507. The AUC (A2780_OVARY) was 0.804, the AUC (ABC1_LUNG) was 1.07 and the AUC (ACCMESO1_PLEURA) was 1.035. For the same molecule, the AUC (ACHN_KIDNEY) was 1.124, the AUC (AGS_STOMACH) was 0.9408 and the AUC (AN3CA_ENDOMETRIUM) was 0.9198. For the same molecule, the AUC (ASPC1_PANCREAS) was 1.1544, the AUC (BC3C_URINARY_TRACT) was 1.1182 and the AUC (BCPAP_THYROID) was 0.9965. It also gave an AUC (BECKER_CENTRAL_NERVOUS_SYSTEM) of 0.8518, an AUC (BEN_LUNG) of 1.124 and an AUC (BFTC905_URINARY_TRACT) of 0.8686. It also gave an AUC (BFTC909_KIDNEY) of 0.9138, an AUC (BHT101_THYROID) of 0.9801 and an AUC (BICR6_UPPER_AERODIGESTIVE_TRACT) of 0.8445. The AUC (BICR16_UPPER_AERODIGESTIVE_TRACT) was 0.8236, the AUC (BICR31_UPPER_AERODIGESTIVE_TRACT) was 0.8691 and the AUC (BICR56_UPPER_AERODIGESTIVE_TRACT) was 0.8298. It also gave an AUC (BT474_BREAST) of 1.426, an AUC (BT549_BREAST) of 0.9189 and an AUC (BXPC3_PANCREAS) of 1.188. The AUC (CADOES1_BONE) was 1.097, the AUC (CAKI1_KIDNEY) was 1.0035 and the AUC (CAL12T_LUNG) was 1.065. The AUC (CAL27_UPPER_AERODIGESTIVE_TRACT) was 0.8579, the AUC (CAL29_URINARY_TRACT) was 0.9717 and the AUC (CAL51_BREAST) was 0.9698. The AUC (CAL54_KIDNEY) was 1.122, the AUC (CAL62_THYROID) was 0.9897 and the AUC (CAL78_BONE) was 0.8669. For the same molecule, the AUC (CAL120_BREAST) was 0.8877, the AUC (CALU1_LUNG) was 1.403 and the AUC (CALU6_LUNG) was 0.9933. It also gave an AUC (CAMA1_BREAST) of 0.994, an AUC (CAOV3_OVARY) of 1.046 and an AUC (CAPAN2_PANCREAS) of 1.09. The AUC (CCFSTTG1_CENTRAL_NERVOUS_SYSTEM) was 0.9028, the AUC (CFPAC1_PANCREAS) was 1.131 and the AUC (CHL1_SKIN) was 1.028. For the same molecule, the AUC (CJM_SKIN) was 0.9117, the AUC (CL34_LARGE_INTESTINE) was 1.2091 and the AUC (COLO668_LUNG) was 0.9325. It also gave an AUC (COLO679_SKIN) of 0.9271, an AUC (COLO680N_OESOPHAGUS) of 0.903 and an AUC (COLO741_SKIN) of 1.181. It also gave an AUC (COLO783_SKIN) of 0.896, an AUC (COLO792_SKIN) of 1.217 and an AUC (COLO800_SKIN) of 0.9306. For the same molecule, the AUC (CORL23_LUNG) was 0.9099, the AUC (CORL105_LUNG) was 0.9151 and the AUC (COV362_OVARY) was 0.9501. It also gave an AUC (COV434_OVARY) of 0.6134, an AUC (DANG_PANCREAS) of 1.103 and an AUC (DAOY_CENTRAL_NERVOUS_SYSTEM) of 0.9019. It also gave an AUC (DBTRG05MG_CENTRAL_NERVOUS_SYSTEM) of 0.986, an AUC (DETROIT562_UPPER_AERODIGESTIVE_TRACT) of 0.8984 and an AUC (DKMG_CENTRAL_NERVOUS_SYSTEM) of 1.055. It also gave an AUC (DMS273_LUNG) of 0.9756, an AUC (DU145_PROSTATE) of 0.9953 and an AUC (DV90_LUNG) of 0.6429. The “∆ (AUC, TP53 mutation vs WT; decreased sensitivity)” value (DepMap TP53 mutation annotation) was 0.0512, the AUC (EBC1_LUNG) was 0.8513 and the AUC (ECGI10_OESOPHAGUS) was 1.105. It also gave an AUC (EFM192A_BREAST) of 1.042, an AUC (EFO21_OVARY) of 0.9443 and an AUC (EFO27_OVARY) of 0.9949. The AUC (EN_ENDOMETRIUM) was 1.056, the AUC (ES2_OVARY) was 1.069 and the AUC (ESS1_ENDOMETRIUM) was 0.9952. The AUC (EWS502_BONE) was 1.4146, the AUC (FADU_UPPER_AERODIGESTIVE_TRACT) was 1.156 and the AUC (FTC133_THYROID) was 0.8526. The AUC (FTC238_THYROID) was 0.8658, the AUC (G292CLONEA141B1_BONE) was 1.276 and the AUC (G361_SKIN) was 1.1047. The AUC (G401_SOFT_TISSUE) was 0.6407, the AUC (G402_SOFT_TISSUE) was 0.5799 and the AUC (GAMG_CENTRAL_NERVOUS_SYSTEM) was 1.102. The AUC (GB1_CENTRAL_NERVOUS_SYSTEM) was 1.09, the AUC (GCIY_STOMACH) was 1.0232 and the AUC (GCT_SOFT_TISSUE) was 1.012. It also gave an AUC (GI1_CENTRAL_NERVOUS_SYSTEM) of 1.111, an AUC (GMS10_CENTRAL_NERVOUS_SYSTEM) of 1.007 and an AUC (GOS3_CENTRAL_NERVOUS_SYSTEM) of 0.7415. The AUC (GP2D_LARGE_INTESTINE) was 1.073, the AUC (H4_CENTRAL_NERVOUS_SYSTEM) was 0.8128 and the AUC (HARA_LUNG) was 1.29. It also gave an AUC (HCC15_LUNG) of 0.9559, an AUC (HCC38_BREAST) of 1.2075 and an AUC (HCC44_LUNG) of 0.9515. The AUC (HCC56_LARGE_INTESTINE) was 1.407, the AUC (HCC78_LUNG) was 1.024 and the AUC (HCC95_LUNG) was 0.9165. For the same molecule, the AUC (HCC366_LUNG) was 0.9914, the AUC (HCC827_LUNG) was 0.8612 and the AUC (HCC1143_BREAST) was 1.083. The AUC (HCC1195_LUNG) was 0.8483, the AUC (HCC1359_LUNG) was 1.123 and the AUC (HCC1419_BREAST) was 1.047. For the same molecule, the AUC (HCC1428_BREAST) was 0.8065.
